Experimental findings from publication PMC9120017, “Inhibition mechanism of the chloride channel TMEM16A by the pore blocker 1PBC” (Nature Communications, 2022) are described below.

This experiment has as its target T1, mouse TMEM16F (Mus musculus, UniProt Q6P9J9).
T1 construct: expressed in transfected cells; host or cells: HEK293T
T1 sequence (Q6P9J9 1-911): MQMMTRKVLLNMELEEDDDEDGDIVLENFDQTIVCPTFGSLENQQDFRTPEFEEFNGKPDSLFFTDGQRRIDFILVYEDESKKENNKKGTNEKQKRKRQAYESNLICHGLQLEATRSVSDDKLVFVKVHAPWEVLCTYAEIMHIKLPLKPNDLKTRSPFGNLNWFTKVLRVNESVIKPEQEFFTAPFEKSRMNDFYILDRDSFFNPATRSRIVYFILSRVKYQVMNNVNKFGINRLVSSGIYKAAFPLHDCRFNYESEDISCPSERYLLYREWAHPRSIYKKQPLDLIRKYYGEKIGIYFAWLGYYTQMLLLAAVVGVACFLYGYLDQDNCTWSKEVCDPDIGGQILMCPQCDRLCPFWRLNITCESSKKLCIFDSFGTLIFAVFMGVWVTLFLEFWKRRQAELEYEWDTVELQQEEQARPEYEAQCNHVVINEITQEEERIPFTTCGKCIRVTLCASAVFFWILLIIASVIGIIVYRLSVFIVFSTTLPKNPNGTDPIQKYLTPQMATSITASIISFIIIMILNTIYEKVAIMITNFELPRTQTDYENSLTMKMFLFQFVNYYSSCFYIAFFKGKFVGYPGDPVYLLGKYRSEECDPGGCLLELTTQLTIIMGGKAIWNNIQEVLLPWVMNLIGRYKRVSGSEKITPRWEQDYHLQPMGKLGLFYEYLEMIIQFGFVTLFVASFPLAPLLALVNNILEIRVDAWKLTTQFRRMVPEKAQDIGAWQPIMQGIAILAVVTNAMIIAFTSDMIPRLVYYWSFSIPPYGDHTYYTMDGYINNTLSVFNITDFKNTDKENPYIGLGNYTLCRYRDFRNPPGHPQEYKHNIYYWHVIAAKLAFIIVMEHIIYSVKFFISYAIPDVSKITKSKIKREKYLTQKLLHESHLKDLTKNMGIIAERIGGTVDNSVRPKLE
Nature of the experiment: Inside-out patch recording of 1PBC block, TMEM16F. The experiment is classed as cell-based. As to conditions: 300 µM Ca2+. Here is the method:
HEK293T cells (ATCC CRL-1573) were maintained in Dulbecco’s modified Eagle’s medium (DMEM; Sigma-Aldrich) supplemented with 10 U ml^−1 penicillin, 0.1 mg ml^−1 streptomycin (Sigma-Aldrich), 2 mM L-glutamine (Sigma-Aldrich), and 10% FBS (Sigma-Aldrich) in a humidified atmosphere containing 5% CO2 at 37 °C. HEK293S GnTI^− cells (ATCC CRL-3022) were maintained in HyClone HyCell TransFx-H medium (GE Healthcare) supplemented with 10 U ml^−1 penicillin, 0.1 mg ml^−1 streptomycin, 4 mM L-glutamine, 0.15% poloxamer 188 (Sigma-Aldrich), and 1% FBS in an atmosphere containing 5% CO2 at 185 rpm at 37 °C. The ac splice variant of mouse TMEM16A (UniProt ID: Q8BHY3), mouse TMEM16B (UniProt ID: Q8CFW1), or mouse TMEM16F (UniProt ID: Q6P9J9) bearing a 3C cleavage site, a Venus YFP, a Myc tag, and a Streptavidin-binding peptide (SBP) downstream of the open reading frame in a modified pcDNA3.1 vector (Invitrogen) were used as described previously[21],[31]. Mutations were introduced using a modified QuikChange method[58] and were verified by sequencing.
HEK293T cells were transfected with 3–4 μg DNA per 6 cm Petri dish using the calcium phosphate co-precipitation method and were used within 24–96 h after transfection. Recordings were performed on inside-out patches excised from HEK293T cells expressing the construct of interest. Patch pipettes were pulled from borosilicate glass capillaries (O.D. 1.5 mm, I.D. 0.86 mm, Sutter Instrument) and were fire-polished with a microforge (Narishige) before use. Pipette resistance was typically 3–8 MΩ when filled with the recording solutions detailed below. Seal resistance was typically 4 GΩ or higher. Voltage-clamp recordings were made using Axopatch 200B, Digidata 1550, and Clampex 10.7 (Molecular Devices). Analog signals were filtered with the in-built 4-pole Bessel filter at 10 kHz and were digitized at 20 kHz. Solution exchange was achieved using a gravity-fed system through a theta glass pipette mounted on an ultra-fast piezo-driven stepper (Siskiyou). […] All recordings were performed at 20 °C.
A symmetrical ionic condition was used throughout. Stock solution with Ca^2+-EGTA contained 150 mM NaCl, 5.99 mM Ca(OH)2, 5 mM EGTA, and 10 mM HEPES at pH 7.40. Stock solution with EGTA contained 150 mM NaCl, 5 mM EGTA, and 10 mM HEPES at pH 7.40. Free Ca^2+ concentrations were adjusted by mixing the stock solutions at the required ratios calculated using the WEBMAXC program (http://web.stanford.edu/~cpatton/webmaxcS.htm). Patch pipettes were filled with the stock solution with Ca^2+-EGTA, which has a free Ca^2+ concentration of 1 mM. 1PBC (ChemBridge) stock was reconstituted in anhydrous DMSO (Sigma-Aldrich) at 100 mM and stored at −20 °C. Working solutions with 1PBC were prepared by serial dilution. Unless otherwise stated, experiments were performed at a saturating Ca^2+ concentration as shown in Supplementary Table 1 and the primary data were corrected for current rundown as described previously[21],[25].
Concentration-response relations, obtained from the ratio of the I-V plots before and after the application of the blocker, were fitted to the Hill equation,1 I/Imax=1/1+IC50/[blocker]^h where I/Imax is the normalized current responses, IC50 defines the concentration at which inhibition is at its half-maximum, and h is the Hill coefficient.

`N#Cc1c(C(F)(F)F)cc(O)n2c1nc1ccccc12` [1PBC]: the remaining activity at 3 µM (3 µM 1PBC, +80 mV, read-out: I/Imax) amounted to 100%. Besides, the remaining activity at 10 µM (10 µM 1PBC, +80 mV, read-out: I/Imax) is 98.7%. Moreover, where the note is “30 µM 1PBC, +80 mV, read-out: I/Imax”, the remaining activity at 30 µM came out at 101%. Moreover, the remaining activity at 100 µM (100 µM 1PBC, +80 mV, read-out: I/Imax) was found to be 100%. For the same compound, the “Inhibition of the current mediated by the scramblase TMEM16F” value (within the same concentration range) is “ineffective”.
